T/C data for 12 compounds are collected here from PubChem BioAssay AID272 (DTP/NCI, 2004).

Structures are written as SMILES. Several values for one entry are separate records, joined by “and”; a condition that tells them apart may be missing. Equal entries are not always repeated. Records with an inconclusive call do not appear.

In the assay the test system is Lewis lung carcinoma i.m., BDF1 mice, T/C %. As to the kind of experiment: NCI In Vivo Anticancer Drug Screen. Data for tumor model Lewis Lung Carcinoma (intramuscular) in B6D2F1 (BDF1) mice. An outline of the steps:
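Antitumour activity is assessed in transplanted-tumour mice. Endpoint is survival or tumour size, normalised to vehicle-dosed controls (T/C).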

Setting [1] is: endpoint: median survival time, dose: 40.0 mg/kg/injection, schedule: Q01DX011 (ip), vehicle: saline, higher = longer survival.
The mark [2] stands for this setting: endpoint: median survival time, dose: 80.0 mg/kg/injection, schedule: Q01DX011 (ip), vehicle: saline, higher = longer survival.
The mark [3] stands for this setting: endpoint: mean tumor weight (est.), dose: 50.0 mg/kg/injection, schedule: Q01DX011 (ip), vehicle: saline with Tween-80, higher = larger tumour.
The mark [4] stands for this setting: endpoint: mean tumor weight (est.), dose: 100.0 mg/kg/injection, schedule: Q01DX011 (ip), vehicle: saline with Tween-80, higher = larger tumour.

In the case of `O=C(O)c1[nH]c(=O)[nH]c(=O)c1F`, the T/C reads like this: (endpoint: median survival time, dose: 0.19 mg/kg/injection, schedule: Q01DX011 (ip), vehicle: sodium bicarbonate, higher = longer survival) 100 % of control; (endpoint: median survival time, dose: 0.38 mg/kg/injection, schedule: Q01DX011 (ip), vehicle: sodium bicarbonate, higher = longer survival) 111 % of control; (endpoint: median survival time, dose: 0.75 mg/kg/injection, schedule: Q01DX011 (ip), vehicle: sodium bicarbonate, higher = longer survival) 92 % of control; (endpoint: median survival time, dose: 1.5 mg/kg/injection, schedule: Q01DX011 (ip), vehicle: sodium bicarbonate, higher = longer survival) 100 % of control; (endpoint: median survival time, dose: 2.5 mg/kg/injection, schedule: Q01DX011 (ip), vehicle: other, higher = longer survival) 105 % of control; (endpoint: median survival time, dose: 3.12 mg/kg/injection, schedule: Q01DX011 (ip), vehicle: sodium bicarbonate, higher = longer survival) 101 % of control. Further, the T/C (endpoint: median tumor weight (est.), dose: 0.19 mg/kg/injection, schedule: Q01DX011 (ip), vehicle: sodium bicarbonate, higher = larger tumour) is 96 % of control; the T/C (endpoint: median tumor weight (est.), dose: 0.38 mg/kg/injection, schedule: Q01DX011 (ip), vehicle: sodium bicarbonate, higher = larger tumour) was 85 % of control; the T/C (endpoint: median tumor weight (est.), dose: 0.75 mg/kg/injection, schedule: Q01DX011 (ip), vehicle: sodium bicarbonate, higher = larger tumour) was 101 % of control; the T/C (endpoint: median tumor weight (est.), dose: 1.5 mg/kg/injection, schedule: Q01DX011 (ip), vehicle: sodium bicarbonate, higher = larger tumour) is 108 % of control; the T/C (endpoint: median tumor weight (est.), dose: 3.12 mg/kg/injection, schedule: Q01DX011 (ip), vehicle: sodium bicarbonate, higher = larger tumour) is 81 % of control.

For `O=C(CBr)OCCOc1ccccc1`, the T/C was 85 % of control (endpoint: mean tumor weight (est.), dose: 5.0 mg/kg/injection, schedule: Q01DX011 (ip), vehicle: saline with Tween-80, higher = larger tumour); 93 % of control (endpoint: mean tumor weight (est.), dose: 10.0 mg/kg/injection, schedule: Q01DX011 (ip), vehicle: saline with Tween-80, higher = larger tumour); 85 % of control (endpoint: mean tumor weight (est.), dose: 20.0 mg/kg/injection, schedule: Q01DX011 (ip), vehicle: saline with Tween-80, higher = larger tumour); 88 % of control (endpoint: median survival time, dose: 5.0 mg/kg/injection, schedule: Q01DX011 (ip), vehicle: saline with Tween-80, higher = longer survival); 104 % of control (endpoint: median survival time, dose: 10.0 mg/kg/injection, schedule: Q01DX011 (ip), vehicle: saline with Tween-80, higher = longer survival); 108 % of control (endpoint: median survival time, dose: 20.0 mg/kg/injection, schedule: Q01DX011 (ip), vehicle: saline with Tween-80, higher = longer survival).

As to `N#CSCc1ccc(Cl)cc1Cl`, the T/C by setting is: (endpoint: mean tumor weight, dose: 25.0 mg/kg/injection, schedule: Q01DX011 (ip), vehicle: saline, higher = larger tumour) 75 % of control; (endpoint: mean tumor weight, dose: 50.0 mg/kg/injection, schedule: Q01DX011 (ip), vehicle: saline, higher = larger tumour) 56 % of control; (endpoint: mean tumor weight, dose: 100.0 mg/kg/injection, schedule: Q01DX011 (ip), vehicle: saline, higher = larger tumour) 25 % of control; (endpoint: mean tumor weight, dose: 200.0 mg/kg/injection, schedule: Q01DX011 (ip), vehicle: saline, higher = larger tumour) 47 % of control; (endpoint: median survival time, dose: 25.0 mg/kg/injection, schedule: Q01DX011 (ip), vehicle: saline, higher = longer survival) 86 % of control; (endpoint: median survival time, dose: 50.0 mg/kg/injection, schedule: Q01DX011 (ip), vehicle: saline, higher = longer survival) 95 % of control. Also, the T/C reads like this: (endpoint: median survival time, dose: 100.0 mg/kg/injection, schedule: Q01DX011 (ip), vehicle: saline, higher = longer survival) 119 % of control; (endpoint: median survival time, dose: 200.0 mg/kg/injection, schedule: Q01DX011 (ip), vehicle: saline, higher = longer survival) 106 % of control.

For `O=c1[nH]cc(N(CCCl)CCCl)c(=O)[nH]1`, the T/C (endpoint: median survival time, dose: 0.13 mg/kg/injection, schedule: Q01DX011 (ip), vehicle: other, higher = longer survival) is 104 % of control; the T/C (endpoint: median survival time, dose: 0.25 mg/kg/injection, schedule: Q01DX011 (ip), vehicle: other, higher = longer survival) is 110 % of control; the T/C (endpoint: median survival time, dose: 0.5 mg/kg/injection, schedule: Q01DX011 (ip), vehicle: other, higher = longer survival) was 102 % of control; the T/C (endpoint: median survival time, dose: 0.5 mg/kg/injection, schedule: Q01DX011 (ip), vehicle: saline, higher = longer survival) was 92 % of control.

As to `O=S(=O)(O)SCCNCCCCCC1CCCCC1`, the T/C (endpoint: mean tumor weight (est.), dose: 0.75 mg/kg/injection, schedule: Q01DX011 (ip), vehicle: saline, higher = larger tumour) is 78 % of control; the T/C (endpoint: mean tumor weight (est.), dose: 1.5 mg/kg/injection, schedule: Q01DX011 (ip), vehicle: saline, higher = larger tumour) was 80 % of control; the T/C (endpoint: mean tumor weight (est.), dose: 3.0 mg/kg/injection, schedule: Q01DX011 (ip), vehicle: saline, higher = larger tumour) was 88 % of control; the T/C (endpoint: mean tumor weight (est.), dose: 6.0 mg/kg/injection, schedule: Q01DX011 (ip), vehicle: saline, higher = larger tumour) is 100 % of control; the T/C (endpoint: median survival time, dose: 0.75 mg/kg/injection, schedule: Q01DX011 (ip), vehicle: saline, higher = longer survival) was 94 % of control; the T/C (endpoint: median survival time, dose: 1.5 mg/kg/injection, schedule: Q01DX011 (ip), vehicle: saline, higher = longer survival) was 111 % of control. In addition, the T/C was 107 % of control (endpoint: median survival time, dose: 3.0 mg/kg/injection, schedule: Q01DX011 (ip), vehicle: saline, higher = longer survival) and 96 % of control (endpoint: median survival time, dose: 6.0 mg/kg/injection, schedule: Q01DX011 (ip), vehicle: saline, higher = longer survival).

As to `COC(=O)C1Cc2cncn2C(=O)N1` (stereo not given), the T/C was 113 % of control (endpoint: median survival time, dose: 4.0 mg/kg/injection, schedule: Q01DX009 (ip), vehicle: water, higher = longer survival); 108 % of control (endpoint: median survival time, dose: 8.0 mg/kg/injection, schedule: Q01DX009 (ip), vehicle: water, higher = longer survival); 104 % of control (endpoint: median survival time, dose: 16.0 mg/kg/injection, schedule: Q01DX009 (ip), vehicle: water, higher = longer survival); 103 % of control (endpoint: median survival time, dose: 32.0 mg/kg/injection, schedule: Q01DX009 (ip), vehicle: water, higher = longer survival); 98 % of control (endpoint: median survival time, dose: 64.0 mg/kg/injection, schedule: Q01DX009 (ip), vehicle: water, higher = longer survival).

For `O=c1n(CC2CO2)c(=O)n(CC2CO2)c(=O)n1CC1CO1` (stereo not given), the T/C was 115 % of control (endpoint: median survival time, dose: 20.0 mg/kg/injection, schedule: Q01DX011 (ip), vehicle: saline, higher = longer survival); 120 % of control and 122 % of control (endpoint: median survival time, dose: 30.0 mg/kg/injection, schedule: Q01DX011 (ip), vehicle: saline, higher = longer survival); 117 % of control and 124 % of control under setting [1]; 114 % of control (endpoint: median survival time, dose: 70.0 mg/kg/injection, schedule: Q01DX011 (ip), vehicle: saline, higher = longer survival); 90 % of control under setting [2]; 115 % of control (endpoint: median survival time, dose: 90.0 mg/kg/injection, schedule: Q01DX011 (ip), vehicle: saline, higher = longer survival).

As for `O=c1ccc2nc3ccccc3sc-2c1`, the T/C runs as follows: (endpoint: mean tumor weight (est.), dose: 12.5 mg/kg/injection, schedule: Q01DX011 (ip), vehicle: saline with Tween-80, higher = larger tumour) 73 % of control; (endpoint: mean tumor weight (est.), dose: 25.0 mg/kg/injection, schedule: Q01DX011 (ip), vehicle: saline with Tween-80, higher = larger tumour) 75 % of control; under setting [3], 78 % of control; under setting [4], 42 % of control; (endpoint: median survival time, dose: 25.0 mg/kg/injection, schedule: Q01DX011 (ip), vehicle: saline with Tween-80, higher = longer survival) 89 % of control.

Turning to `N=c1ccn2c(n1)OC1C(O)C(CO)OC12` (stereo not given), the T/C is 34 % of control (endpoint: mean tumor weight, dose: 200.0 mg/kg/injection, schedule: Q01DX011 (ip), vehicle: water, higher = larger tumour); 64 % of control (endpoint: mean tumor weight, dose: 400.0 mg/kg/injection, schedule: Q01DX011 (ip), vehicle: water, higher = larger tumour); 115 % of control (endpoint: median survival time, dose: 200.0 mg/kg/injection, schedule: Q01DX011 (ip), vehicle: water, higher = longer survival); 124 % of control (endpoint: median survival time, dose: 400.0 mg/kg/injection, schedule: Q01DX011 (ip), vehicle: water, higher = longer survival).

Take `COc1ccc(OC)c(/C=C/c2ccnc3ccccc23)c1`: the T/C was 84 % of control under setting [3]; 75 % of control under setting [4]; 77 % of control (endpoint: mean tumor weight (est.), dose: 400.0 mg/kg/injection, schedule: Q01DX011 (ip), vehicle: saline with Tween-80, higher = larger tumour); 100 % of control (endpoint: median survival time, dose: 50.0 mg/kg/injection, schedule: Q01DX011 (ip), vehicle: saline with Tween-80, higher = longer survival); 102 % of control (endpoint: median survival time, dose: 100.0 mg/kg/injection, schedule: Q01DX011 (ip), vehicle: saline with Tween-80, higher = longer survival).

For `NC(C(=O)O)C(F)(F)C(=O)O` (stereo not given), the T/C runs as follows: (endpoint: median survival time, dose: 3.12 mg/kg/injection, schedule: Q01DX011 (ip), vehicle: saline, higher = longer survival) 109 % of control; (endpoint: median survival time, dose: 6.25 mg/kg/injection, schedule: Q01DX011 (ip), vehicle: saline, higher = longer survival) 100 % of control; (endpoint: median survival time, dose: 12.5 mg/kg/injection, schedule: Q01DX011 (ip), vehicle: saline, higher = longer survival) 104 % of control.

On to `O=C1NC(=O)C(F)(F)C(O)N1` (stereo not given), for which the T/C is 103 % of control (endpoint: mean tumor weight (est.), dose: 40.0 mg/kg/injection, schedule: Q01DX011 (ip), vehicle: saline, higher = larger tumour); 80 % of control (endpoint: mean tumor weight (est.), dose: 80.0 mg/kg/injection, schedule: Q01DX011 (ip), vehicle: saline, higher = larger tumour); 43 % of control (endpoint: mean tumor weight (est.), dose: 160.0 mg/kg/injection, schedule: Q01DX011 (ip), vehicle: saline, higher = larger tumour); 98 % of control under setting [1]; 103 % of control under setting [2].
